Experimental data reported in patent publication US20230348493A1, “COMPOUND FOR ADJUSTING ACTIVITY OF NMDA RECEPTOR, AND PHARMACEUTICAL COMPOSITION AND USE THEREOF” (BEIJING GREATWAY PHARMACEUTICAL TECHNOLOGY CO., LTD., priority 2020, published 2023).
Where two headings read alike, the source gives them in different places.

Tests used:
NMDA receptor [1] = target: T1, NMDA receptor (Rattus norvegicus, UniProt P35439); assay: Inhibition of [3H]-MK-801 binding to rat crude synaptosomes (receptor ligand binding assay); settings: affinity on NMDA; [3H]-MK-801 10 nM, rat prefrontal cortex and hippocampus crude synaptosomes; read-out: IC50
T1 construct: After the rats were decapitated, the prefrontal cortex and hippocampus were rapidly separated on ice; from tissue; host or cells: SD male rat prefrontal cortex and hippocampus, crude synaptosomes
Description: The affinity of the tested compounds on NMDA receptor was researched by receptor ligand binding assays.
Ten SD male rats of SPF grade were ordered and acclimated for 7 days for future use.
(§1) After the rats were decapitated, the prefrontal cortex and hippocampus were rapidly separated on ice and weighed, 10 volumes of 50 mM Tris-HCl buffer (50 mM Tris-HCl, 5 mM MgCl2·6H2O, 1 mM EDTA, 0.5% (W/V) BSA, 1 mM PMSF, 0.32 M sucrose, pH 7.4) was added, and the mixture was homogenized for five times at 1500 revolutions/min with 30 s each time. A homogenate was centrifuged for 10 min at 1000×g, and a supernatant was taken and centrifuged for 10 min at 40,000×g, the precipitates were collected, re-suspended with volumes of Tris-HCl buffer, incubated at 37° C. for 10 min, and centrifuged for 10 min at 40,000×g, finally the precipitates were re-suspended with the above buffer, aliquoted and stored at −80° C. for later use.
(2) Detection of Inhibitory Function of Tested Medicines on Binding of Crude Synaptosomes in Rats to [^3H]-MK-801
50 μg of rat crude synaptosomal proteins was added to all tubes respectively. A volume of 50 μl of MK-801 (dizocilpine) was added to a non-specific binding tube to achieve a final concentration of 100 μM, and the materials were reacted for 15 min in advance. 20 μL of control drug at corresponding concentration was added to the test tube for reaction for 15 min. A volume of 30 μl of labeled ligand [^3H]-MK-801 was successively added to all tubes to achieve a final concentration of 10 nM. All reaction tubes were supplemented to a volume of 200 μl with 50 mM Tris-HCl buffer (50 mM Tris-HCl, 5 mM MgCl2·6H2O, 1 mM EDTA, 0.5% (WN) BSA, 0.1% NaN3, pH 7.4). A reaction was carried out at 37° C. for 10 min. A type-49 glass fiber filter membrane was prepared and a sample was applied at the same time. The filter membrane was placed in a multi-head cell collector, and a reaction system was subjected to suction filtration under negative pressure and washed with an ice-cold 50 mM Tris-HCl buffer, 10 ml each time, for a total of 5 times. After suction drying, 1 ml of scintillation liquid was added to the filter membrane, the filter membrane was placed on a shaker for shaking for 1.5 h and then placed in a liquid scintillation counter on the next day to determine the radioactive intensity.
GraphPad5.0 software was used to analyze the data, and the percentage of competitive inhibition was calculated through nonlinear fitting, wherein:
Percentage of competitive inhibition %=((total binding tube cpm−compound cpm)/(total binding tube cpm−non-specific binding tube cpm))×100%;
Specific binding amount=total binding amount−non-specific binding amount, wherein each binding site was determined by double compound tubes.

NMDA receptor [2] = target: T1, NMDA receptor; assay: NMDA receptor agonistic properties in rat crude synaptosomal proteins (maximum [3H]-MK-801 binding vs 1 mM glycine); assay type: biochemical; settings: maximum [3H]-MK-801 binding % relative to 1 mM glycine; 50 μM glutamic acid
Description: as §1
(3) Detection of Influence of Tested Medicines on NMDA Receptor Agonistic Properties in Rat Crude Synaptosomal Proteins
100 μg of rat crude synaptosomal proteins was added to all tubes respectively. 50 μl of 5,7-dichlorokynurenic acid was added to a non-specific binding tube to achieve a final concentration of 10 μM. All tubes were preloaded with 50 μM of glutamic acid, and the materials were reacted for 15 min in advance. 20 μL of control drug at corresponding concentration was added to the test tube, and then reacted for 15 min. 1 mM glycine was added to the maximum reaction tube. A volume of 30 μl of labeled ligand [^3H]-MK-801 was successively added to all tubes to achieve a final concentration of 10 nM, and reacted for 15 min. All reaction tubes were supplemented to a volume of 500 μl with 50 mM Tris-HCl buffer (50 mM Tris-HCl, 5 mM MgCl2·6H2O, 1 mM EDTA, 0.5% (WN) BSA, 0.1% NaN3, pH 7.4). A reaction was carried out at 37° C. for 15 min. A type-49 glass fiber filter membrane was prepared and a sample was applied at the same time. The filter membrane was placed in a multi-head cell collector, and the reaction system was subjected to suction filtration under negative pressure and washed with an ice-cold 50 mM Tris-HCl buffer, 10 ml each time, for a total of 5 times. After suction drying, 1 ml of scintillation liquid was added to the filter membrane, the filter membrane was placed on the shaker for shaking for 1.5 h and then placed in the liquid scintillation counter on the next day to determine the radioactive intensity.
In an agonistic experiment, maximum [^3H]-MK-801 binding %=((tested compounds cpm−5,7 dichlorokynurenic acid cpm)/(1 mM glycine cpm−5,7 dichlorokynurenic acid cpm))×100%.

[3] = In-vivo metabolism (pharmacokinetic) study in rats, oral / tail intravenous; settings: rat, plasma; for bioavailability: male, SD, oral 10 mg/kg vs intravenous 1 mg/kg, rats; for AUC(0-t) / Cmax: male SD rats
Description: The pharmacokinetic parameters such as exposure of plasma concentrations of the compounds of examples were evaluated by oral/tail intravenous injection model tests in rats in order to evaluate the in-vivo metabolic stability in rats.
The male SD rats weighing 200±20 g and being SPF grade were used in this experiment and purchased from SPF.
Preparation of intravenous solution: 1 mg of each tested medicine was weighed accurately, and a volume was metered to 5 mL with 0.9% sodium chloride solution to prepare 0.2 mg/mL. A dose volume was 1 mL for per 200 g of weight, and the dose was 1 mg for per 1 kg of weight based on the concentration conversion.
Preparation of intragastric solution: 10 mg of each tested medicine was accurately weighed, and a volume was metered to 10 mL with 0.9% sodium chloride solution to prepare 1 mg/mL of the solution. A dose volume was 2 mL for per 200 g of weight, and the dose was 10 mg for per 1 kg of weight based on the concentration conversion.
Rats were randomly divided into 8 groups, 6 rats were in each group, oral gavage administration and tail intravenous administration were performed according to the above doses. About 0.2 mL of orbital blood was collected before administration and at 2 min, 5 min, 15 min, 30 min, 1 h, 2 h, 3 h, 4 h and 6 h after administration, respectively, and centrifuged at 3000 rpm for 10 min at 4° C., and a supernatant was taken for LC/MS/MS determination. A DAS pharmacokinetics program was used to analyze the measured data and calculate the main pharmacokinetic parameters.

rats = assay: Forced swimming test in rats; assay type: in vivo; settings: Rattus norvegicus, Po
Description: Pharmacodynamic evaluation was performed by the forced swimming tests in rats. The experimental animals were male SD rats weighing 150 g-180 g and being SPF grade, and acclimated for one week after purchase, and then subjected to forced swimming tests, the rats need be fasted for 12 hours before the tests. The compounds of examples were dissolved with normal saline, and blank control group (normal saline) and example compound administration group were established. 8-10 rats were provided for each group. On the day before the tests, the rats were placed in a glass cylinder with a height of 40 cm, an inner diameter of 18 cm, and a water depth of 23 cm for pre-swimming for 15 min, and a water temperature was 28° C. After the pre-swimming the rats were removed, wiped with a dry cloth, and dried with an electrical heater, then returned to a rearing cage, and administered. A formal forced swimming test was performed on the next day for a total of 5 min. The accumulated immobility time within 5 min was recorded, and a second forced swimming test was performed on the seventh day; the criteria for determining immobility were that the rats stopped struggling in the water, were in a floating state, and had only slight limb movements to keep the head floating on the water surface. The results are shown in Table 4, and the experimental data were statistically analyzed by GraphPad Prism 5.0 software.

[4] = 48 h, Day 2, *P<0.05, **P<0.01 compared with the control group, read-out: Reduction percentage (%) of floating time, Day 2
[5] = 168 h, Day 7, *P<0.05, **P<0.01 compared with the control group, read-out: Reduction percentage (%) of floating time, Day 7

Row | SMILES | IC50 (NMDA receptor [1]) | Maximum agonistic efficacy (%) (NMDA receptor [2]) | bioavailability [3] | AUC(0-t) ([3]; Intravenous injection, 1 mg/kg) | Cmax ([3]; Intravenous injection, 1 mg/kg) | AUC(0-t) ([3]; Oral, 10 mg/kg) | Cmax ([3]; Oral, 10 mg/kg) | inhibition in vivo at 0.1 mg/kg (rats; [4]) | inhibition in vivo at 0.1 mg/kg (rats; [5])
1 | C[C@@H](O)[C@H](N)C(=O)N1CC2(C1)NCCS2.Cl [A-006] | 0.44 nM | 32% | 21.2% | 16500 ng·h/mL | 11600 ng/mL | 35000 ng·h/mL | 18400 ng/mL | 36.4% | 22.2%
2 | Cl.N[C@@H](CO)C(=O)N1CC2(C1)NCCS2 [A-007] | 0.89 nM | 56% | – | – | – | – | – | 35.1% | 32.4%
3 | CC(C)[C@H](N)C(=O)N1CC2(C1)NCCS2.Cl [A-008] | 0.89 nM | 35% | – | – | – | – | – | 54.9% | 57.3%
4 | C[C@@H](O)[C@H](N)C(=O)N1CCC2(C1)NCCS2.Cl (some centres unmarked) [A-020] | 0.25 nM | 42% | – | – | – | – | – | 51.8% | 59.3%
5 | C[C@@H](O)[C@H](N)C(=O)N1CCC2(CC1)NCCS2.Cl [A-034] | 0.89 nM | 25% | – | – | – | – | – | 71.9% | 60.1%
6 | CC(=O)N1CCSC12CCN(C(=O)[C@@H](N)[C@@H](C)O)CC2.Cl [A-082] | 0.89 nM | 45% | 19.6% | 6850 ng·h/mL | 18300 ng/mL | 13400 ng·h/mL | 5580 ng/mL | – | –
7 | C[C@@H](O)[C@H](N)C(=O)N1CCC2(CC1)N[C@H](C(N)=O)CS2.Cl [A-274] | 0.28 nM | 55% | 62.7% | 1630 ng·h/mL | 2480 ng/mL | 3350 ng·h/mL | 1880 ng/mL | – | –
8 | C[C@H](NC(=O)[C@@H]1CSC2(CN(C(=O)[C@@H](N)[C@@H](C)O)C2)N1)C(N)=O.Cl [A-378] | 1.66 nM | 49% | – | – | – | – | – | – | –
9 | CC(=O)N1CCC2(C1)N[C@H](C(=O)N[C@H](C(N)=O)[C@@H](C)O)CS2.Cl (some centres unmarked) [A-384] | 0.42 nM | 39% | – | – | – | – | – | – | –
10 | C[C@@H](O)[C@H](NC(=O)[C@@H]1CSC2(CCNCC2)N1)C(N)=O.Cl [A-390] | 0.39 nM | 55% | – | – | – | – | – | – | –
11 | C[C@@H](O)[C@H](N)C(=O)N1CCC2(CC1)N[C@H](C(=O)N[C@H](C(N)=O)[C@@H](C)O)CS2.Cl [A-394] | 0.79 nM | 63% | – | – | – | – | – | – | –
12 | C[C@@H](O)[C@H](N)C(=O)N1CCCC2(C1)N[C@H](C(=O)N[C@H](C(N)=O)[C@@H](C)O)CS2.Cl (some centres unmarked) [A-401] | 0.44 nM | 75% | – | – | – | – | – | – | –
13 | C[C@@H](O)[C@H](N)C(=O)N1CC2(C1)N[C@H](C(=O)N1CCOCC1)CS2.Cl [A-409] | 0.56 nM | 36% | – | – | – | – | – | – | –
14 | C[C@@H](O)[C@H](N)C(=O)N1CCC2(C1)N[C@H](C(=O)N1CCCCC1)CS2.Cl (some centres unmarked) [A-421] | 0.38 nM | 45% | – | – | – | – | – | – | –
15 | C[C@@H](O)[C@H](N)C(=O)N1CCC2(C1)N[C@H](C(=O)N1CCN(C)CC1)CS2.Cl (some centres unmarked) [A-429] | 0.66 nM | 57% | – | – | – | – | – | – | –
16 | C[C@@H](O)[C@H](N)C(=O)N1CCC2(CC1)N[C@H](C(=O)N1CCCCC1)CS2.Cl [A-437] | 0.33 nM | 42% | – | – | – | – | – | – | –
17 | C[C@@H](O)[C@H](N)C(=O)N1CCC2(CC1)N[C@H](C(=O)N1CCSCC1)CS2.Cl [A-449] | 0.47 nM | 38% | – | – | – | – | – | – | –
18 | CN1CCN(C(=O)[C@@H]2CSC3(CCCN(C(=O)[C@@H](N)CO)C3)N2)CC1.Cl (some centres unmarked) [A-463] | 0.52 nM | 59% | – | – | – | – | – | – | –
19 | Cl.N[C@@H](CO)C(=O)N1CC2(C1)N[C@H](C(=O)N1CCNCC1)CS2 [A-470] | 0.35 nM | 33% | – | – | – | – | – | – | –
20 | Cl.N[C@@H](CO)C(=O)N1CCC2(CC1)N[C@H](C(=O)N1CCNCC1)CS2 [A-476] | 0.96 nM | 56% | – | – | – | – | – | – | –
